Measured values: publication PMC10870114 (Clinical Cancer Research, 2023)

Legend:
Type in all cases: in vivo, human
[1] = test system: locally advanced rectal cancer; experiment: Tumor response
[2] = test system: patients with locally advanced rectal cancer; experiment: Late toxicities and deaths after the on-treatment period
[3] = test system: patients with locally advanced rectal cancer; experiment: Dose-limiting toxicities
[4] = Overall, peposertib 50-250 mg + RT + capecitabine, n = 19
[5] = peposertib 50 mg + RT + capecitabine, n = 1
[6] = peposertib 100 mg + RT + capecitabine, n = 6
[7] = peposertib 150 mg + RT + capecitabine, n = 6
[8] = peposertib 250 mg + RT + capecitabine, n = 6

COc1ccc([C@@H](O)c2cc(-c3ncnc4cc(N5CCOCC5)ccc34)c(F)cc2Cl)nn1 [Peposertib]
cCR rate ([1]; 8 weeks after CRT completion, all cohorts, n = 3 of 19): 15.8%
Clinical complete response: Responders [1, 4]: 3 (15.8) n (%)
Clinical response: Complete response [1, 4]: 3 (15.8) n (%)
Clinical response: Incomplete response [1, 4]: 4 (21.1) n (%)
Clinical response: Near-complete response [1, 4]: 8 (42.1) n (%)
Clinical response: Progressive disease [1, 4]: 0 (0) n (%)
Composite endpoint cCR/pCR: Responders [1, 4]: 1 (5.3) n (%)
Pathologic complete response: Responders [1, 4]: 0 (0) n (%)
Composite endpoint cCR/pCR rate ([1]; all cohorts, one of 19 patients (100-mg cohort)): 5.3%
Patients achieving pCR ([1]; of the nine patients who opted for surgery): none
Clinical complete response: Responders [1, 5]: 0 (0) n (%)
Clinical response: Complete response [1, 5]: 0 (0) n (%)
Clinical response: Incomplete response [1, 5]: 0 (0) n (%)
Clinical response: Near-complete response [1, 5]: 1 (100) n (%)
Clinical response: Progressive disease [1, 5]: 0 (0) n (%)
Composite endpoint cCR/pCR: Responders [1, 5]: 0 (0) n (%)
Pathologic complete response: Responders [1, 5]: 0 (0) n (%)
Clinical complete response: Responders [1, 6]: 1 (16.7) n (%)
Clinical response: Complete response [1, 6]: 1 (16.7) n (%)
Clinical response: Incomplete response [1, 6]: 1 (16.7) n (%)
Clinical response: Near-complete response [1, 6]: 2 (33.3) n (%)
Clinical response: Progressive disease [1, 6]: 0 (0) n (%)
Composite endpoint cCR/pCR: Responders [1, 6]: 1 (16.7) n (%)
Pathologic complete response: Responders [1, 6]: 0 (0) n (%)
Clinical complete response: Responders [1, 7]: 1 (16.7) n (%)
Clinical response: Complete response [1, 7]: 1 (16.7) n (%)
Clinical response: Incomplete response [1, 7]: 2 (33.3) n (%)
Clinical response: Near-complete response [1, 7]: 2 (33.3) n (%)
Clinical response: Progressive disease [1, 7]: 0 (0) n (%)
Composite endpoint cCR/pCR: Responders [1, 7]: 0 (0) n (%)
Pathologic complete response: Responders [1, 7]: 0 (0) n (%)
Clinical complete response: Responders [1, 8]: 1 (16.7) n (%)
Clinical response: Complete response [1, 8]: 1 (16.7) n (%)
Clinical response: Incomplete response [1, 8]: 1 (16.7) n (%)
Clinical response: Near-complete response [1, 8]: 3 (50.0) n (%)
Clinical response: Progressive disease [1, 8]: 0 (0) n (%)
Composite endpoint cCR/pCR: Responders [1, 8]: 0 (0) n (%)
Pathologic complete response: Responders [1, 8]: 0 (0) n (%)
Dose dependence of late toxicities ([2]; across the peposertib dose range): no discernible indication of a dose-dependent effect
Late toxicities: anemia ([2]; all cohorts): 3 n
Patients with late toxicities ([2]; all cohorts, 18 patients, data cutoff March 22, 2022): 94.7%
Grade ≥3 late toxicities ([2]; all cohorts, at data cutoff): 11 patients
Late toxicities: proctitis ([2]; all cohorts, n = 3): 15.8%
Late toxicities: gastrointestinal disorders ([2]; all cohorts, n = 12): 63.2%
Patients who died during the study ([2]; all considered unrelated to study treatment, not treatment-emergent): Three
DLT reported overall ([3]; all dose cohorts): five
Peposertib dose considered tolerable in combination with RT and capecitabine ([3]; based on the totality of safety data): ≤ 150 mg once daily
Dose-limiting toxicities, patients with DLT of evaluable patients ([3]; peposertib 100 mg once daily + CRT, radiation skin injury and enterocolitis): one out of five
Dose-limiting toxicities, patients with DLT of evaluable patients ([3]; peposertib 250 mg once daily + CRT, two enterocolitis and one proctitis): three out of six
MTD and RP2D ([3]; peposertib + capecitabine-based CRT, study enrollment prematurely discontinued): not declared
